The text below walks through data of patent publication EP1178110A1, “EDG8 receptor for sphingosine 1-phosphate , its preparation and use” (Aventis Pharma Deutschland GmbH, priority 2000, dated 2002).

One experiment relates to human EDG8, SEQ ID NO. 2. Kind of experiment: FLIPR assay of intracellular Ca2+ mobilization in transiently transfected CHO cells. As to conditions: for increase in intracellular Ca^2+: lipids at 10, 100 and 1000 nM, CHO cells with EDG8 and Gα16 or Gαqi5 (Fig.3), LPA and DHS1P active at 100 and 1000 nM, SPC and LPC tested up to 1 µM. The class given is cell-based. The procedure:
(§1) CHO-K1 cells were grown in basal ISCOVE medium supplemented with 10% fetal bovine serum at 37°C in a humidified 5% CO2 incubator. For transfections, 2 x 10^5 cells were seeded into 35-mm dishes. About 24 hr later cells were transiently transfected at 50-80% confluency with the indicated receptor and G-protein constructs (1µg of plasmid DNA each) using the Lipofectamine transfection reagent and the supplied protocol (GIBCO). 18-24 hr after transfection cells were seeded into 96well plates at a density of 50.000 cells per well and cultured for 18-24 additional hr until used in the functional FLIPR assays. The cDNA for Gα16 was cloned from TF1 cells by RT-PCR and ligated into the pCDNA1.1 mammalian expression vector (Invitrogen). Murine wild type Gαq was cloned from cells by RT-PCR and inserted into the BamHl-Nsil-sites of pCDNA1.1. To create the C-terminally modified Gαqi5 subunit, in which the last five aa of wt Gαq were replaced with the correspoding Gαi sequence, a 175-bp Bg/II-NsiI fragment was replaced, in a two piece ligation, with a synthetic DNA fragment, containing the desired codon changes. The correctness of all PCR-derived sequences was verified by sequencing in both directions.
(§2) Twenty-four hours after transfection, cells were splitted into 96-well, black-wall microplates (Corning) at a density of 50,000 cells per well. 18-24 hr later, cells were loaded with 95µl of HBSS containing 20 mM Hepes, 2.5 mM probenecid, 4 µM fluorescent calcium indicator dye Fluo4 (Molecular Probes) and 1% fetal bovine serum for 1 h(37°C, 5% CO2). Cells were washed three times with HBSS containing 20 mM Hepes and 2.5 mM probenecid in a cell washer. After the final wash, the solution was aspirated to a residual volume of 100 µl per 96 well. Lipid ligands were dissolved in DMSO as 2 mM stock solutions (treated with ultrasound when necessary) and diluted at least 1:100 into HBSS containing 20 mM HEPES, 2.5 mM probenecid and 0.4 mg/ml fatty acid free bovine serum albumine. Lipids were aliquoted as 2X solutions into a 96 well plate prior to the assay. The fluorometric imaging plate reader (FLIPR, Molecular Devices) was programmed to transfer 100 µl from each well of the ligand microplate to each well of the cellplate and to record fluorescence during 3 min in 1 second intervals during the first minute and 3 second intervals during the last two minutes. Total fluorescence counts from the 18-s to 37-s time points are used to determine agonist activity. The instrument software normalizes the fluorescent reading to give equivalent initial readings at time zero.
(Calcium assays in cells follow changes in intracellular calcium, usually with a dye or a luminescent sensor.)

Experiment [1] relates to CHO cells transfected with empty vector DNA. The experiment is described as follows: FLIPR assay of intracellular Ca2+ mobilization in control CHO cells without receptor. The class given is cell-based, chinese hamster. Particulars: S1P 10, 100 and 1000 nM; empty vector DNA (Fig.2A). The procedure:
CHO-K1 cells were grown in basal ISCOVE medium supplemented with 10% fetal bovine serum at 37°C in a humidified 5% CO2 incubator. For transfections, 2 x 10^5 cells were seeded into 35-mm dishes. About 24 hr later cells were transiently transfected at 50-80% confluency with the indicated receptor and G-protein constructs (1µg of plasmid DNA each) using the Lipofectamine transfection reagent and the supplied protocol (GIBCO). 18-24 hr after transfection cells were seeded into 96well plates at a density of 50.000 cells per well and cultured for 18-24 additional hr until used in the functional FLIPR assays. The cDNA for Gα16 was cloned from TF1 cells by RT-PCR and ligated into the pCDNA1.1 mammalian expression vector (Invitrogen). […]
Twenty-four hours after transfection, cells were splitted into 96-well, black-wall microplates (Corning) at a density of 50,000 cells per well. […] The fluorometric imaging plate reader (FLIPR, Molecular Devices) was programmed to transfer 100 µl from each well of the ligand microplate to each well of the cellplate and to record fluorescence during 3 min in 1 second intervals during the first minute and 3 second intervals during the last two minutes. Total fluorescence counts from the 18-s to 37-s time points are used to determine agonist activity. The instrument software normalizes the fluorescent reading to give equivalent initial readings at time zero.

A further experiment relates to EDG5 receptor. Kind of experiment: FLIPR assay of intracellular Ca2+ mobilization in transiently transfected CHO cells. As to conditions: S1P 10, 100 and 1000 nM; CHO cells with EDG5 (Fig.2D). Type of experiment: cell-based, human. On the procedure:
as §1, §2

A further experiment deals with EDG6 receptor. Described as above. The class given is cell-based, human. As to conditions: S1P 10, 100 and 1000 nM; CHO cells with EDG6, no cotransfected G-protein α subunit (Fig.2E). On the procedure: as §1, §2
The subject of a further experiment is EDG1 receptor. Described as above. Particulars: S1P 10, 100 and 1000 nM; CHO cells with EDG1 (Fig.2B). Type of experiment: cell-based, human. On the procedure:
as §1, §2

The next experiment concerns EDG3 receptor. The experiment is described as above. As to conditions: S1P 10, 100 and 1000 nM; CHO cells with EDG3 (Fig.2C). The class given is cell-based, human. The procedure: as §1, §2

For `CCCCCCCCCCCCCC=CC(O)C(N)COP(=O)([O-])OCC[N+](C)(C)C` (stereo not drawn) [SPC, sphingosylphosphorylcholine], in the experiment with human EDG8, SEQ ID NO. 2, the “increase in intracellular Ca^2+” value is listed as “failed to generate any significant response”.

As for `CCCCCCCC/C=C\CCCCCCCC(=O)OCC(O)COP(=O)(O)O` (stereo not drawn) [LPA, lysophosphatidic acid], the “increase in intracellular Ca^2+” value in the experiment with human EDG8, SEQ ID NO. 2 was “evoked [Ca^2+]i increases”.

Take lysophosphatidylcholine [LPC]: the “increase in intracellular Ca^2+” value with human EDG8, SEQ ID NO. 2 is “failed to generate any significant response”.

As to `CCCCCCCCCCCCC/C=C/[C@@H](O)[C@@H](N)COP(=O)(O)O` [S1P, sphingosin 1-phosphate], the “release of [Ca^2+]i” value in the experiment with human EDG8, SEQ ID NO. 2 (S1P 10, 100 and 1000 nM, CHO cells with EDG8, no cotransfected G-protein α subunit (Fig.2F)) was “did not release [Ca^2+]i”. In the experiment on human EDG8, SEQ ID NO. 2 (S1P 10, 100 and 1000 nM, CHO cells with EDG8 cotransfected with Gα16 or Gαqi5 (Fig.2F)), the “mobilization of Ca^2+” value is reported as “gained the ability to mobilize Ca^2+”. Moreover, the “increase in intracellular Ca^2+” value with human EDG8, SEQ ID NO. 2 is “most potent activator of EDG8”. For the same compound, the “rises in intracellular Ca^2+” value in experiment [1] is on record as “None of the applied S1P concentrations was capable of eliciting significant rises in intracellular Ca^2+”. Further, the “mobilization of [Ca^2+]i” value in the experiment with EDG5 receptor, in the experiment on EDG1 receptor and in the experiment with EDG3 receptor was “mobilize [Ca^2+]i” throughout. Further, in the experiment on EDG6 receptor, the “Ca^2+ increase above basal levels” value was “failed to detect a significant Ca^2+ increase above basal levels”.

For `CCCCCCCCCCCCCCCC(O)C(N)COP(=O)(O)O` (stereo not drawn) [DHS1P], the “increase in intracellular Ca^2+” value in the experiment with human EDG8, SEQ ID NO. 2 was “evoked [Ca^2+]i increases”.
